# Source: patent US20160228434A1, “TREATMENT OF DISEASES CAUSED BY ABNORMAL LYMPHOCYTE FUNCTION WITH AN HDAC6 INHIBITOR” (priority 2013, published 2016)
# “Also recorded” adds a separate entry of the source.
# Tested on: glomerular IgG and C3 deposition
# Assay: Glomerular immune complex (IgG, C3) deposition by immunofluorescence in treated NZB/W mice
# Format: in vivo
# Settings: for glomerular C3 deposition (score 0-4, fluorescence) / glomerular IgG deposition (score 0-4, fluorescence): vs vehicle control
# Protocol: NZB/W mice were injected intraperitoneally 5 days/week with the vehicle control (DMSO), ACY-738 treatment at 5 mg/kg (low-dose), or ACY-738 treatment at 20 mg/kg (high-dose) beginning at 22-weeks-of-age until euthanization at 38 weeks-of-age. ACY-738 was received from Acetylon Pharmaceuticals for use in all studies. Proteinuria and weight were measured every 2 weeks and blood was collected every four weeks for sera analysis. Proteinuria was measured by a standard semi-quantitative test using Siemens Uristix dipsticks (Siemens Healthcare, Deerfield, Ill., USA). Results were quantified according to the manufacturer's instructions and scored as follows: dipstick reading of 0 mg/dL=0, trace=1, 30-100 mg/dL=2, 100-300 mg/dL=3, 300-2000 mg/dL=4, and 2000+ mg/dL=5.
# One half of each kidney was placed in OCT media and snap-frozen in a slurry containing dry ice and 2-methylbutane (Fisher Scientific, Hampton, N.H., USA). Frozen kidney sections were cut into […] sections and stained with goat anti-mouse IgG conjugated to FITC (Pierce) diluted 1:100 or goat anti-mouse C3-FITC (Pierce, Thermo Fisher Scientific, Waltham, Mass., USA) diluted 1:100. Kidney sections were examined by fluorescent microscopy. Sections were scored (0-4) for immune complex deposition by a pathologist in a blinded manner.
# 5 μM kidney sections were stained with FITC-conjugated C3 or IgG and assessed for fluorescence intensity. (see FIGS. 10A and 10B).
# [1] = 16 weeks of treatment, dose not stated
structure (smiles),measurement,setting,value
O=C(NO)c1cnc(NC2(c3ccccc3)CC2)nc1 [ACY-738],"glomerular C3 deposition (score 0-4, fluorescence)","5 mg/kg, 5 mg/kg",slight decrease; also recorded: no significant effect
same,"glomerular IgG deposition (score 0-4, fluorescence)","5 mg/kg, 5 mg/kg",slight decrease; also recorded: no significant effect
same,"glomerular C3 deposition (score 0-4, fluorescence)","20 mg/kg (high dose), 20 mg/kg",significantly decreased
same,"glomerular IgG deposition (score 0-4, fluorescence)","20 mg/kg (high dose), 20 mg/kg",significantly decreased
same,glomerular C3 deposition level,[1],significantly decreased
same,glomerular IgG deposition level,[1],significantly decreased
